Data: patent US7064120B2, “Tricyclic pyridyl carboxamides and derivatives thereof tocolytic oxytocin receptor antagonists” (Wyeth, priority 2001, dated 2006)

Target: T1, human oxytocin receptor (Homo sapiens, UniProt P30559)
T1 construct: host or cells: CHO cells, stably transfected (pcDNA3.1 vector)
T1 sequence (P30559 1-389): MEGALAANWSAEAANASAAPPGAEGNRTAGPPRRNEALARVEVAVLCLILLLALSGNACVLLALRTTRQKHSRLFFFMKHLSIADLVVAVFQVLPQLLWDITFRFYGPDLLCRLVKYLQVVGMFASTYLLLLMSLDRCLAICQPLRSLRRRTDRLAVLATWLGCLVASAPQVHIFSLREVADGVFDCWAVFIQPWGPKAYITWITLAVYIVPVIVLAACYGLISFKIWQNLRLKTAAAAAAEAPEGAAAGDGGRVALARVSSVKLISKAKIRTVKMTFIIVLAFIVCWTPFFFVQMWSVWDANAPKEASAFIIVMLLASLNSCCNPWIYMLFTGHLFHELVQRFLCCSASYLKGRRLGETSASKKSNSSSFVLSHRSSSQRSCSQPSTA
Assay: Oxytocin binding in CHO cell membranes expressing human oxytocin receptors ([3H]oxytocin radioligand binding)
Conditions: 100 nM, read-out: OT % inhibition @ 100 nM
Method in brief: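 CHO membranes expressing human oxytocin receptor (25–50 μg protein/well) incubated 60 min at room temperature with [3H]oxytocin in Tris-HCl pH 7.4 buffer with MgCl2, BSA and protease inhibitors. Filtration and scintillation counting; reported as % inhibition at a stated concentration or nM IC50.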

SMILES | inhibition at 0.1 µM [%]
Cc1cc(C(=O)N2Cc3ccc(C(=O)N(C)CCc4ccccn4)n3Cc3ccccc32)ccc1-c1ccccc1C(F)(F)F [Example 74, N-Methyl-10-{[2-methyl-2′-trifluoromethyl-[1,1′-biphenyl]-4-yl]carbonyl}-N-[2-(2-pyridinyl)ethyl]-10,11-dihydro-5H-pyrrolo[2,1-c][1,4]benzodiazepine-3-carboxamide] | 91
COc1ccccc1-c1ccc(C(=O)N2Cc3ccc(C(=O)N4CCN(c5ccccn5)CC4)n3Cc3ccccc32)cc1C [Example 75, {10-[(2′-Methoxy-2-methyl-[1,1′-biphenyl]-4-yl)carbonyl]-10,11-dihydro-5H-pyrrolo[2,1-c][1,4]benzodiazepin-3-yl}[4-(2-pyridinyl)-1-piperazinyl]methanone] | 62
Cc1ccccc1-c1ccc(C(=O)N2Cc3ccc(C(=O)N4CCN(c5ccccn5)CC4)n3Cc3ccccc32)cc1C [Example 76, {10-[(2,2′-Dimethyl-[1,1′-biphenyl]-4-yl)carbonyl]-10,11-dihydro-5H-pyrrolo[2,1-c][1,4]benzodiazepin-3-yl}[4-(2-pyridinyl)-1-piperazinyl]methanone] | 62
COc1cccc(-c2ccc(C(=O)N3Cc4ccc(C(=O)N5CCN(c6ccccn6)CC5)n4Cc4ccccc43)cc2C)c1 [Example 77, {10-[(3′-Methoxy-2-methyl-[1,1′-biphenyl]-4-yl)carbonyl]-10,11-dihydro-5H-pyrrolo[2,1-c][1,4]benzodiazepin-3-yl}[4-(2-pyridinyl)-1-piperazinyl]methanone] | 21
COc1ccccc1-c1ccc(C(=O)N2Cc3ccc(C(=O)N4CCN(c5ccccn5)CC4)n3Cc3ccccc32)cc1 [Example 78, {10-[(2′-Methoxy-[1,1′-biphenyl]-4-yl)carbonyl]-10,11-dihydro-5H-pyrrolo[2,1-c][1,4]benzodiazepin-3-yl}[4-(2-pyridinyl)-1-piperazinyl]methanone] | 59
Cc1ccccc1-c1ccc(C(=O)N2Cc3ccc(C(=O)N4CCN(c5ccccn5)CC4)n3Cc3ccccc32)cc1 [Example 79, {10-[(2′-Methyl-[1,1′-biphenyl]-4-yl)carbonyl]-10,11-dihydro-5H-pyrrolo[2,1-c][1,4]benzodiazepin-3-yl}[4-(2-pyridinyl)-1-piperazinyl]methanone] | 49
COc1cc(C(=O)N2Cc3ccc(C(=O)N4CCN(c5ccccn5)CC4)n3Cc3ccccc32)ccc1-c1ccccc1C [Example 80, {10-[(2-Methoxy-2′-methyl-[1,1′-biphenyl]-4-yl)carbonyl]-10,11-dihydro-5H-pyrrolo[2,1-c][1,4]benzodiazepin-3-yl}[4-(2-pyridinyl)-1-piperazinyl]methanone] | 50
COc1cc(-c2ccccc2C)c(Cl)cc1C(=O)N1Cc2ccc(C(=O)N3CCN(c4ccccn4)CC3)n2Cc2ccccc21 [Example 81, {10-[(6-Chloro-3-methoxy-2′-methyl-[1,1′-biphenyl]-4-yl)carbonyl]-10,11-dihydro-5H-pyrrolo[2,1-c][1,4]benzodiazepin-3-yl}[4-(2-pyridinyl)-1-piperazinyl]methanone] | 50
COc1cccc(-c2cc(OC)c(C(=O)N3Cc4ccc(C(=O)N5CCN(c6ccccn6)CC5)n4Cc4ccccc43)cc2Cl)c1 [Example 82, {10-[(6-Chloro-3,3′-dimethoxy-[1,1′-biphenyl]-4-yl)carbonyl]-10,11-dihydro-5H-pyrrolo[2,1-c][1,4]benzodiazepin-3-yl}[4-(2-pyridinyl)-1-piperazinyl]methanone] | 27
COc1ccccc1-c1ccc(C(=O)N2Cc3ccc(C(=O)N4CCN(c5ccccn5)CC4)n3Cc3ccccc32)cc1OC [Example 84, {10-[(2,2′-Dimethoxy-[1,1′-biphenyl]-4-yl)carbonyl]-10,11-dihydro-5H-pyrrolo[2,1-c][1,4]benzodiazepin-3-yl}[4-(2-pyridinyl)-1-piperazinyl]methanone] | 46
COc1cccc(-c2ccc(C(=O)N3Cc4ccc(C(=O)N5CCN(c6ccccn6)CC5)n4Cc4ccccc43)cc2OC)c1 [Example 85, {10-[(2,3′-Dimethoxy-[1,1′-biphenyl]-4-yl)carbonyl]-10,11-dihydro-5H-pyrrolo[2,1-c][1,4]benzodiazepin-3-yl}[4-(2-pyridinyl)-1-piperazinyl]methanone] | 32
O=C(c1ccc2n1Cc1ccccc1N(C(=O)c1ccc(-c3cccc4ccccc34)cc1Cl)C2)N1CCN(c2ccccn2)CC1 [Example 86, {10-[2-Chloro-4-(naphthalen-1-yl)benzoyl]-10,11-dihydro-5H-pyrrolo[2,1-c][1,4]benzodiazepin-3-yl}[4-(2-pyridinyl)-1-piperazinyl]methanone] | 21
Cc1cc(C(=O)N2Cc3ccc(C(=O)N4CCN(c5ccccn5)CC4)n3Cc3ccccc32)ccc1-c1ccccc1C(F)(F)F [Example 87, (10-{[2-Methyl-2′-trifluoromethyl-[1,1′-biphenyl]-4-yl]carbonyl}-10,11-dihydro-5H-pyrrolo[2,1-c][1,4]benzodiazepin-3-yl)[4-(2-pyridinyl)-1-piperazinyl]methanone] | 52
COc1ccccc1-c1ccc(C(=O)N2Cc3ccc(C(=O)NCc4ccncc4)n3Cc3ccccc32)cc1C [Example 88, 10-[(2′-Methoxy-2-methyl-[1,1′-biphenyl]-4-yl)carbonyl]-N-(4-pyridinylmethyl)-10,11-dihydro-5H-pyrrolo[2,1-c][1,4]benzodiazepine-3-carboxamide] | 44
Cc1ccccc1-c1ccc(C(=O)N2Cc3ccc(C(=O)NCc4ccncc4)n3Cc3ccccc32)cc1C [Example 89, 10-[(2,2′-Dimethyl-[1,1′-biphenyl]-4-yl)carbonyl]-N-(4-pyridinylmethyl)-10,11-dihydro-5H-pyrrolo[2,1-c][1,4]benzodiazepine-3-carboxamide] | 67
COc1cccc(-c2ccc(C(=O)N3Cc4ccc(C(=O)NCc5ccncc5)n4Cc4ccccc43)cc2C)c1 [Example 90, 10-[(3′-Methoxy-2-methyl-[1,1′-biphenyl]-4-yl)carbonyl]-N-(4-pyridinylmethyl)-10,11-dihydro-5H-pyrrolo[2,1-c][1,4]benzodiazepine-3-carboxamide] | 44
COc1ccccc1-c1ccc(C(=O)N2Cc3ccc(C(=O)NCc4ccncc4)n3Cc3ccccc32)cc1 [Example 91, 10-[(2′-Methoxy-[1,1′-biphenyl]-4-yl)carbonyl]-N-(4-pyridinylmethyl)-10,11-dihydro-5H-pyrrolo[2,1-c][1,4]benzodiazepine-3-carboxamide] | 44
Cc1ccccc1-c1ccc(C(=O)N2Cc3ccc(C(=O)NCc4ccncc4)n3Cc3ccccc32)cc1 [Example 92, 10-[(2′-Methyl-[1,1′-biphenyl]-4-yl)carbonyl]-N-(4-pyridinylmethyl)-10,11-dihydro-5H-pyrrolo[2,1-c][1,4]benzodiazepine-3-carboxamide] | 30
COc1cc(C(=O)N2Cc3ccc(C(=O)NCc4ccncc4)n3Cc3ccccc32)ccc1-c1ccccc1C [Example 93, 10-[(2-Methoxy-2′-methyl-[1,1′-biphenyl]-4-yl)carbonyl]-N-(4-pyridinylmethyl)-10,11-dihydro-5H-pyrrolo[2,1-c][1,4]benzodiazepine-3-carboxamide] | 69
COc1cc(-c2ccccc2C)c(Cl)cc1C(=O)N1Cc2ccc(C(=O)NCc3ccncc3)n2Cc2ccccc21 [Example 94, 10-[(6-Chloro-3-methoxy-2′-methyl-[1,1′-biphenyl]-4-yl)carbonyl]-N-(4-pyridinylmethyl)-10,11-dihydro-5H-pyrrolo[2,1-c][1,4]benzodiazepine-3-carboxamide] | 37
COc1cccc(-c2cc(OC)c(C(=O)N3Cc4ccc(C(=O)NCc5ccncc5)n4Cc4ccccc43)cc2Cl)c1 [Example 95, 10-[(6-Chloro-3,3′-dimethoxy-[1,1′-biphenyl]-4-yl)carbonyl]-N-(4-pyridinylmethyl)-10,11-dihydro-5H-pyrrolo[2,1-c][1,4]benzodiazepine-3-carboxamide] | 7
COc1cc(C(=O)N2Cc3ccc(C(=O)NCc4ccncc4)n3Cc3ccccc32)ccc1-c1cccc2ccccc12 [Example 96, 10-[3-Methoxy-4-(naphthalen-1-yl)benzoyl]-N-(4-pyridinylmethyl)-10,11-dihydro-5H-pyrrolo[2,1-c][1,4]benzodiazepine-3-carboxamide] | 28
COc1ccccc1-c1ccc(C(=O)N2Cc3ccc(C(=O)NCc4ccncc4)n3Cc3ccccc32)cc1OC [Example 97, 10-[(2,2′-Dimethoxy-[1,1′-biphenyl]-4-yl)carbonyl]-N-(4-pyridinylmethyl)-10,11-dihydro-5H-pyrrolo[2,1-c][1,4]benzodiazepine-3-carboxamide] | 36
O=C(NCc1ccncc1)c1ccc2n1Cc1ccccc1N(C(=O)c1ccc(-c3cccc4ccccc34)cc1Cl)C2 [Example 99, 10-[2-Chloro-4-(naphthalen-1-yl)benzoyl]-N-(4-pyridinylmethyl)-10,11-dihydro-5H-pyrrolo[2,1-c][1,4]benzodiazepine-3-carboxamide] | 13
Cc1cc(C(=O)N2Cc3ccc(C(=O)NCc4ccncc4)n3Cc3ccccc32)ccc1-c1ccccc1C(F)(F)F [Example 100, 10-{[2-Methyl-2′-trifluoromethyl-[1,1′-biphenyl]-4-yl]carbonyl}-N-(4-pyridinylmethyl)-10,11-dihydro-5H-pyrrolo[2,1-c][1,4]benzodiazepine-3-carboxamide] | 24
